Data published in the kinase profiling compilation of Christmann-Franck et al. (2016).

What was measured:
Assay in all cases: KINOMEscan competition binding
Conditions in all cases: compound 1.0 µM
AAK1 (human) = AAK1 (human) (UniProt Q2M2I8)
[1] = test system: ABL1 (human), P00519 [M351T]
AKT2 (human) = AKT2 (human) (UniProt P31751)
CDK13 (human) = CDK13 (human) (UniProt Q14004)
CDK8 (human) = CDK8 (human) (UniProt P49336)
CLK1 (human) = CLK1 (human) (UniProt P49759)
CPK1 (P.falciparum) = test system: CPK1 (P.falciparum)
CSF1R (human) = CSF1R (human) (UniProt P07333)
CSNK1E (human) = CSNK1E (human) (UniProt P49674)
DAPK3 (human) = DAPK3 (human) (UniProt O43293)
[2] = test system: EIF2AK4 KD2 (human), Q9P2K8 [S808G]
EPHA3 (human) = EPHA3 (human) (UniProt P29320)
[3] = test system: FLT3 (human), P36888 [D835H]
[4] = molecular target: JAK1 JH2 pseudokinase (human) (UniProt P23458)
[5] = test system: KIT (human), P10721 [D816H]
[6] = test system: KIT (human), P10721 [V559D]
LTK (human) = LTK (human) (UniProt P29376)
MAP2K1 (human) = MAP2K1 (human) (UniProt Q02750)
MAP3K13 (human) = MAP3K13 (human) (UniProt O43283)
MAP3K7 (human) = MAP3K7 (human) (UniProt O43318)
Sequence of MAP3K7 (human) (O43318 whole entry, looked up): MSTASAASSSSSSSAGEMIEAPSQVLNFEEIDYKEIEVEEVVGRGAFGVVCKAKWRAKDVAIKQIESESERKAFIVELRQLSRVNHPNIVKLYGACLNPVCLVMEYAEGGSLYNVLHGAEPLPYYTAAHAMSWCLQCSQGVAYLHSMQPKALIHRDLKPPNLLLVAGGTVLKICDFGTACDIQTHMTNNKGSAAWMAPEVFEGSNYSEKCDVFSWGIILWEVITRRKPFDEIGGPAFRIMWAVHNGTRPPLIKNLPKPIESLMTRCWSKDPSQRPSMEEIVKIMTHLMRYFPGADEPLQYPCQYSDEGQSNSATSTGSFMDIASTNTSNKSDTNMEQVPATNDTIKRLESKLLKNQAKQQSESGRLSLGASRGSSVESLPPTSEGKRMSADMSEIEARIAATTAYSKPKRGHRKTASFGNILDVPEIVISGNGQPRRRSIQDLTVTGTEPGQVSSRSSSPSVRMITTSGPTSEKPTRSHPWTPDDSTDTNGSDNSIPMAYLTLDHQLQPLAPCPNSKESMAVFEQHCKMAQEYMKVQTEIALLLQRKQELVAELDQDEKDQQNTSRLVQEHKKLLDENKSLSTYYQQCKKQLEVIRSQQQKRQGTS

MAP3K9 (human) = MAP3K9 (human) (UniProt P80192)
MAPK15 (human) = MAPK15 (human) (UniProt Q8TD08)
MAPK6 (human) = MAPK6 (human) (UniProt Q16659)
MAPK9 (human) = MAPK9 (human) (UniProt P45984)
MATK (human) = MATK (human) (UniProt P42679)
[7] = test system: MET (human), P08581 [Y1235D]
MINK1 (human) = MINK1 (human) (UniProt Q8N4C8)
NEK1 (human) = NEK1 (human) (UniProt Q96PY6)
NEK6 (human) = NEK6 (human) (UniProt Q9HC98)
PHKG2 (human) = PHKG2 (human) (UniProt P15735)
Sequence of PHKG2 (human) (P15735 whole entry, looked up): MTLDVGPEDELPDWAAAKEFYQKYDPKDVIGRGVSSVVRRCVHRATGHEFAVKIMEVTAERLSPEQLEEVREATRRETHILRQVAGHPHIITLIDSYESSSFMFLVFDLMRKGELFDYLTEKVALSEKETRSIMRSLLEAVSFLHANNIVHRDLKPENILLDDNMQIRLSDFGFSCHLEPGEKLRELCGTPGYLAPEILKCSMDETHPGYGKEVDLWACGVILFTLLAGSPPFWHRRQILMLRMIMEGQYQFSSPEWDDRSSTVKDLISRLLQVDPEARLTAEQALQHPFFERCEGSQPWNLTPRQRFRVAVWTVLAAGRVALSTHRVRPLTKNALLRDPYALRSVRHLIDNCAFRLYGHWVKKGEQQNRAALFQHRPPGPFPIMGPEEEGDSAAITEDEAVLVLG

PIK3CA (human) = PIK3CA (human) (UniProt P42336)
PIK3CB (human) = PIK3CB (human) (UniProt P42338)
PRKCE (human) = PRKCE (human) (UniProt Q02156)
PRKCQ (human) = PRKCQ (human) (UniProt Q04759)
Sequence of PRKCQ (human) (Q04759 whole entry, looked up): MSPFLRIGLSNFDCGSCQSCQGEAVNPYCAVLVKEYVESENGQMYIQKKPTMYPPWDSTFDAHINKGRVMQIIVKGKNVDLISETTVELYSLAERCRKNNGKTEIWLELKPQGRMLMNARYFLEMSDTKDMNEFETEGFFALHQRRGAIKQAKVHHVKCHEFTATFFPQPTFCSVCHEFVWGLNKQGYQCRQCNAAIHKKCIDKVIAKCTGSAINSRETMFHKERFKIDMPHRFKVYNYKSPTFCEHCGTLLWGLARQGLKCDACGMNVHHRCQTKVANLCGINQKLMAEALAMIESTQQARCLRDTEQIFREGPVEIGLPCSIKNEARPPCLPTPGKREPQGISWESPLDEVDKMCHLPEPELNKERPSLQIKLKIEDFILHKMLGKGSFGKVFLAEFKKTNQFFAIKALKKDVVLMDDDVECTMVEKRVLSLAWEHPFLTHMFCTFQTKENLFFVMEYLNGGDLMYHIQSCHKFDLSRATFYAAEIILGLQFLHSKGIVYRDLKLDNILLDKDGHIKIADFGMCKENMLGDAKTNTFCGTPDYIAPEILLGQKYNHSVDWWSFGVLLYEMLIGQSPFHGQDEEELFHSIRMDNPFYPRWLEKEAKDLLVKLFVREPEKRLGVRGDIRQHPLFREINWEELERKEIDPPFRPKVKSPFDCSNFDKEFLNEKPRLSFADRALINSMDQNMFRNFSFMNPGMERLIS

PRKG1 (human) = PRKG1 (human) (UniProt Q13976)
RIOK1 (human) = RIOK1 (human) (UniProt Q9BRS2)
Sequence of RIOK1 (human) (Q9BRS2 whole entry, looked up): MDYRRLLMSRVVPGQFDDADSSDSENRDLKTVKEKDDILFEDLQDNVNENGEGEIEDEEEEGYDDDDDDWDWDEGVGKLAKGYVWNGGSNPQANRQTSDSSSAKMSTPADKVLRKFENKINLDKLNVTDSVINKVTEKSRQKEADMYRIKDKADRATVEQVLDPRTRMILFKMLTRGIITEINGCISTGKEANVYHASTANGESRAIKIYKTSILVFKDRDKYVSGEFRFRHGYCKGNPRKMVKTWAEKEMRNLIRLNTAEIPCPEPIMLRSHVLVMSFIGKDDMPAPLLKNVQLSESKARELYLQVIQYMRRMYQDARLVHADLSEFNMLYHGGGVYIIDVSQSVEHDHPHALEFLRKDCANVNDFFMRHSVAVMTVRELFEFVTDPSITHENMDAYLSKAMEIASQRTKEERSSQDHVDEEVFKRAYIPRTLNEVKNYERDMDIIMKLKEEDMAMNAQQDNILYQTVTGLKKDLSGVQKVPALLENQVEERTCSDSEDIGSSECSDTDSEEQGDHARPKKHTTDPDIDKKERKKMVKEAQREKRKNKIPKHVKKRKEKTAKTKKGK

RIOK2 (human) = RIOK2 (human) (UniProt Q9BVS4)
Sequence of RIOK2 (human) (Q9BVS4 whole entry, looked up): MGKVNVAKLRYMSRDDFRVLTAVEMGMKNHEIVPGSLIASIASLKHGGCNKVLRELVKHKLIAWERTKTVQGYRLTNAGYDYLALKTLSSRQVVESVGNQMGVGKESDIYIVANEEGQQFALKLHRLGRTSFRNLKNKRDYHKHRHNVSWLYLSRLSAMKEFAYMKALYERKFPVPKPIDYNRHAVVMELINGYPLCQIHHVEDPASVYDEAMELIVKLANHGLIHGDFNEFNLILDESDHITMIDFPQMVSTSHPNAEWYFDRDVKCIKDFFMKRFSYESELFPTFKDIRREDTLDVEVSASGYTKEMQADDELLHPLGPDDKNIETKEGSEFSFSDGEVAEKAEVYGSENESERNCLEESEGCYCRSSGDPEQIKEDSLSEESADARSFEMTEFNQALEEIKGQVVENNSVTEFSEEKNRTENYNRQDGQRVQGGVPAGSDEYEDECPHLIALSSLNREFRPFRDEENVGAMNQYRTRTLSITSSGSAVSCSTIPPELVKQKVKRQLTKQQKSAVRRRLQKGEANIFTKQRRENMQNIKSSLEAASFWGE

RPS6KA6 KD1 (human) = RPS6KA6 KD1 (human) (UniProt Q9UK32)
RPS6KB1 (human) = RPS6KB1 (human) (UniProt P23443)
SGK3 (human) = SGK3 (human) (UniProt Q96BR1)
SRPK3 (human) = SRPK3 (human) (UniProt Q9UPE1)
STK32C (human) = STK32C (human) (UniProt Q86UX6)
TNIK (human) = TNIK (human) (UniProt Q9UKE5)

Sequence of CDK13 (human) (Q14004 whole entry, looked up): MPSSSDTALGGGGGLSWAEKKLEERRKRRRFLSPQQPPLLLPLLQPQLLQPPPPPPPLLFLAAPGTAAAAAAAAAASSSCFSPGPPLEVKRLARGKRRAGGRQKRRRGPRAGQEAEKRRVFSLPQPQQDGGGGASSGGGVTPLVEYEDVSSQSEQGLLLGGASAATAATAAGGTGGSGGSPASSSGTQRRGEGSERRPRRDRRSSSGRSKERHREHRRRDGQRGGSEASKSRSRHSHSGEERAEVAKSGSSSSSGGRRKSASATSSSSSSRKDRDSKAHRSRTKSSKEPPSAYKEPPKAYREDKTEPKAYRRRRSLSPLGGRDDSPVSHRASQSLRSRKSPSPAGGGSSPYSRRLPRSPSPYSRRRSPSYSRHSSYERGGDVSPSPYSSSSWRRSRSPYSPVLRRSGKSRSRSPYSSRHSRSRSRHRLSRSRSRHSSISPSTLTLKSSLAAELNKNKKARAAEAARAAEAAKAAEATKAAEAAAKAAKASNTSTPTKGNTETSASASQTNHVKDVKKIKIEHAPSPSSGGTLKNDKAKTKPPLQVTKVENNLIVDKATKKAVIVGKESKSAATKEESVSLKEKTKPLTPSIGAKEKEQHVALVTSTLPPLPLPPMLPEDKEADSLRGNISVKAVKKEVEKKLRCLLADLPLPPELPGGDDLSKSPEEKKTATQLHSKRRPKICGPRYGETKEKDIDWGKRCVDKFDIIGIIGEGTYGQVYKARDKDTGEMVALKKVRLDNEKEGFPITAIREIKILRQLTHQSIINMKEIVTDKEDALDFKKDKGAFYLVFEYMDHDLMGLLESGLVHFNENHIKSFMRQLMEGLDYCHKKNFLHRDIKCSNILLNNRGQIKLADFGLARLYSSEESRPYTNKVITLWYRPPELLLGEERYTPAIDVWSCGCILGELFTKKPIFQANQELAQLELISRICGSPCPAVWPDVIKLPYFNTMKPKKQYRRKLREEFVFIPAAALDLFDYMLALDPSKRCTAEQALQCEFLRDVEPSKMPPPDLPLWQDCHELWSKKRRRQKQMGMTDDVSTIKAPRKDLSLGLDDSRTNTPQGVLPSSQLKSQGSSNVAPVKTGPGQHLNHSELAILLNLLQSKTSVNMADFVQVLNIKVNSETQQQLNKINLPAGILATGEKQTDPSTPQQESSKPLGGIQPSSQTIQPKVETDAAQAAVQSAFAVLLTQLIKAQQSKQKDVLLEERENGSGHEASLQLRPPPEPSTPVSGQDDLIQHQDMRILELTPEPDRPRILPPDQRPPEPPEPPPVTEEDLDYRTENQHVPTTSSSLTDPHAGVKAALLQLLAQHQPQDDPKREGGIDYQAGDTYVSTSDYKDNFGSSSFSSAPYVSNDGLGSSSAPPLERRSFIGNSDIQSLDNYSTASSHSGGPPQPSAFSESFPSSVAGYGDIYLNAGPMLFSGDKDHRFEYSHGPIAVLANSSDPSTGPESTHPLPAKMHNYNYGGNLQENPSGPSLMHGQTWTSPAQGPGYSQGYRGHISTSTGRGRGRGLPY
Sequence of AKT2 (human) (P31751 whole entry, looked up): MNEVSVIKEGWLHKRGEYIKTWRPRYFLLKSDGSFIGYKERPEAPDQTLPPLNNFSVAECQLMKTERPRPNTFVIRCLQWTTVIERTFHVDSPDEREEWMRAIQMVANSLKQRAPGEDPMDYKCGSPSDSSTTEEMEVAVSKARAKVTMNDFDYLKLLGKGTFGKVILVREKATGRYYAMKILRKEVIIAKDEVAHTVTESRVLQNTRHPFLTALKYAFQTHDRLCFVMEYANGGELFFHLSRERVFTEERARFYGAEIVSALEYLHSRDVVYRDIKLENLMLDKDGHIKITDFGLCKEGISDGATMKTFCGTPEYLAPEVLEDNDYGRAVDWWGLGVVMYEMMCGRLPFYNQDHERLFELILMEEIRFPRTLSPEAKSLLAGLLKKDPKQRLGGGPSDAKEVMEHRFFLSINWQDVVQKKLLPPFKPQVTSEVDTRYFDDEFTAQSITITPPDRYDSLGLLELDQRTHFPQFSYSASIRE

With `COCCNCCCn1c(C(=O)CF)c(-c2ccc(C)cc2)c2c(N)ncnc21` the kinase still bound, per cent of control (AAK1 (human)) was 95%, the kinase still bound, per cent of control [1] was 96% and the kinase still bound, per cent of control (AKT2 (human)) was 95%. It also gave a kinase still bound, per cent of control (CDK13 (human)) of 90%, a kinase still bound, per cent of control (CDK8 (human)) of 100% and a kinase still bound, per cent of control (CLK1 (human)) of 87%. The kinase still bound, per cent of control (CPK1 (P.falciparum)) was 89%, the kinase still bound, per cent of control (CSF1R (human)) was 89% and the kinase still bound, per cent of control (CSNK1E (human)) was 87%. For the same molecule, the kinase still bound, per cent of control (DAPK3 (human)) was 97%, the kinase still bound, per cent of control [2] was 100% and the kinase still bound, per cent of control (EPHA3 (human)) was 88%. For the same molecule, the kinase still bound, per cent of control [3] was 100%, the kinase still bound, per cent of control [4] was 100% and the kinase still bound, per cent of control [5] was 97%. It also gave a kinase still bound, per cent of control [6] of 73%, a kinase still bound, per cent of control (LTK (human)) of 100% and a kinase still bound, per cent of control (MAP2K1 (human)) of 100%. For the same molecule, the kinase still bound, per cent of control (MAP3K13 (human)) was 92%, the kinase still bound, per cent of control (MAP3K7 (human)) was 100% and the kinase still bound, per cent of control (MAP3K9 (human)) was 100%. It also gave a kinase still bound, per cent of control (MAPK15 (human)) of 96%, a kinase still bound, per cent of control (MAPK6 (human)) of 100% and a kinase still bound, per cent of control (MAPK9 (human)) of 94%. It also gave a kinase still bound, per cent of control (MATK (human)) of 100%, a kinase still bound, per cent of control [7] of 81% and a kinase still bound, per cent of control (MINK1 (human)) of 100%. For the same molecule, the kinase still bound, per cent of control (NEK1 (human)) was 100%, the kinase still bound, per cent of control (NEK6 (human)) was 100% and the kinase still bound, per cent of control (PHKG2 (human)) was 100%. It also gave a kinase still bound, per cent of control (PIK3CA (human)) of 100%, a kinase still bound, per cent of control (PIK3CB (human)) of 89% and a kinase still bound, per cent of control (PRKCE (human)) of 100%. The kinase still bound, per cent of control (PRKCQ (human)) was 99%, the kinase still bound, per cent of control (PRKG1 (human)) was 100% and the kinase still bound, per cent of control (RIOK1 (human)) was 69%. It also gave a kinase still bound, per cent of control (RIOK2 (human)) of 100%, a kinase still bound, per cent of control (RPS6KA6 KD1 (human)) of 90% and a kinase still bound, per cent of control (RPS6KB1 (human)) of 100%. It also gave a kinase still bound, per cent of control (SGK3 (human)) of 79%, a kinase still bound, per cent of control (SRPK3 (human)) of 78% and a kinase still bound, per cent of control (STK32C (human)) of 100%. For the same molecule, the kinase still bound, per cent of control (TNIK (human)) was 95%.
